Columns and labels:
[1] = LNP size and polydispersity index by Malvern Zetasizer dynamic light scattering (CA HA modFlu mRNA LNPs); assay type: physicochemical; details: DLS; for Size (nm): LNP of the ionizable lipid:cholesterol:DSPC:ALC-0159 about 46.3:42.7:9.4:1.6, N:P about 6:1, CA HA modFlu mRNA; for PDI: LNP with CA HA modFlu mRNA
Experimental: (§1) Lipid nanoparticles were prepared and tested according to the general procedures described in U.S. Pat. No. 9,737,619 (PCT Pub. No. WO2015/199952) and U.S. Pat. No. 10,166,298 (PCT Pub. No. WO 2017/075531) and PCT Pub. No. WO2020/146805. The novel ionizable lipids of the invention, cholesterol, distearoylphosphatidylcholine (DSPC) and ALC-0159 2-[(polyethylene glycol)-2000]-N,N ditetradecylacetamide were solubilized in ethanol at a molar ratio of about 46.3:42.7:9.4:1.6. Lipid nanoparticles were made by mixing the lipids containing organic phase with the mRNA containing aqueous phase using an N:P ratio of about 6:1. The mRNA was diluted in buffer. Syringe pumps were used to mix the ethanolic lipid solution with the mRNA aqueous solution. The ethanol was then removed, and the external buffer replaced with another buffer (e.g., Tris) by dialysis. Finally, the lipid nanoparticles were filtered.
(§2) Total RNA concentration and encapsulation efficiency was assessed using the RiboGreen RNA quantitation assay. RNA integrity pre and post formulation was monitored by Agilent Fragment Analyzer capillary gel electrophoresis. Malvern Zetasizer dynamic light scattering (DLS) was used to determine LNP size and polydispersity index (PDI). In vitro expression of the novel ionizable lipid nanoparticles was assessed in HEK293F and Hela cells similar to described in Example 72. Nuclear count and identification of cells stained positive for gene of interest was done on an Opera Phenix high content imager (PerkinElmer, USA).

[2] = Encapsulation efficiency, RiboGreen RNA quantitation assay (CA HA modFlu mRNA LNPs); assay type: physicochemical; details: LNP with CA HA modFlu mRNA
Experimental: as §1, §2

[3] = tested on: HEK293F cells; test: In vitro expression of novel ionizable lipid nanoparticles, high content imaging (CA HA modFlu mRNA); assay type: cell-based; details: LNP with CA HA modFlu mRNA
Experimental: (§3) Plated Hek293T or Hela cells were dosed with lipid nanoparticles in a total volume of 40 μl cell culture media and incubated overnight at 37° C. and 5% CO2. After fixation with 4% paraformaldehyde in PBS cells were washed in PBS containing 0.3% Triton-X100 and 3% BSA (w/v), followed by nuclear staining with Hoechst and antibody staining for the encoded gene of interest. Nuclear count and identification of cells stained positive for gene of interest was done on an Opera Phenix high content imager (PerkinElmer, USA).
as §1, §2

[4] = tested on: Hela cells; test: as above; assay type: cell-based; details: LNP with CA HA modFlu mRNA
Experimental: as §3, §1, §2

| SMILES | Size (nm) [1] | PDI [1] | EE % [2] | EC50 Hek293F (ng/well) [3] | EC50 Hela (ng/well) [4] |
| --- | --- | --- | --- | --- | --- |
| CCCCCCCC(CCCCCCC)C(=O)O[C@@H]1CC2(CCN(CCCCO)CC2)C[C@H]1OC(=O)C(CCCCCCC)CCCCCCC (single isomer, unassigned) [Example 57, (2R*,3R*)-8-(4-hydroxybutyl)-8-azaspiro[4.5]decane-2,3-diyl bis(2-heptylnonanoate)] | 74 nm | 0.118 | 99% | 2.9 ng/well | 4.7 ng/well |
| CCCCCCCC(CCCCCCC)C(=O)O[C@H]1CC2(CCN(CCCCO)CC2)C[C@@H]1OC(=O)C(CCCCCCC)CCCCCCC (single isomer, unassigned) [Example 58, (2S*,3S*)-8-(4-hydroxybutyl)-8-azaspiro[4.5]decane-2,3-diyl bis(2-heptylnonanoate)] | 79 nm | 0.125 | 98% | 1.6 ng/well | 1.7 ng/well |
| CCCCCCCCC(C(=O)OCC(COC(=O)C(CCCCCCCC)C1CCC1)N1CCC2(CCN(CCCCO)CC2)CC1)C1CCC1 (centres unmarked) [Example 4, 2-(9-(4-hydroxybutyl)-3,9-diazaspiro[5.5]undecan-3-yl)propane-1,3-diyl bis(2-cyclobutyldecanoate)] | 97 nm | 0.170 | 98% | 46.9 ng/well | >50 ng/well |
| CCCCCCCCC(CCCCCC)C(=O)OCC(COC(=O)C(CCCCCC)CCCCCCCC)N1CCC2(CCN(CCCCCO)CC2)CC1 (centres unmarked) [Example 5, 2-(9-(5-hydroxypentyl)-3,9-diazaspiro[5.5]undecan-3-yl)propane-1,3-diyl bis(2-hexyldecanoate)] | 136 nm | 0.040 | 100% | 1.32 ng/well | 4.3 ng/well |
| CCCCCCCCC(CCCCCC)C(=O)OCC(COC(=O)C(CCCCCC)CCCCCCCC)N1CCC2(CCN(CCCCO)C2)CC1 (centres unmarked) [Example 6, 2-(2-(4-hydroxybutyl)-2,8-diazaspiro[4.5]decan-8-yl)propane-1,3-diyl bis(2-hexyldecanoate)] | 133 nm | 0.080 | 100% | 0.42 ng/well | 1.1 ng/well |
| CCCCCCCCCCCCCCCC(=O)OCC(COC(=O)C(CCCCCC)CCCCCCCC)N1CCC2(CCN(CCCCO)CC2)CC1 (centres unmarked) [Example 7, 3-((2-hexyldecanoyl)oxy)-2-(9-(4-hydroxybutyl)-3,9-diazaspiro[5.5]undecan-3-yl)propyl palmitate] | 84 nm | 0.130 | 99% | 20.4 ng/well | 2.0 ng/well |
| CCCCCCCC(CCCCCCC)C(=O)OCC(COC(=O)C(CCCCCCC)CCCCCCC)N1CCC2(CCN(CCCNc3c(NC)c(=O)c3=O)CC2)CC1 [Example 8, 2-(9-(3-((2-(methylamino)-3,4-dioxocyclobut-1-en-1-yl)amino)propyl)-3,9-diazaspiro[5.5]undecan-3-yl)propane-1,3-diyl bis(2-heptylnonanoate)] | 68 nm | 0.101 | 100% | 4.1 ng/well | 2.5 ng/well |
| CCCCCCCCC(CCCCCC)C(=O)OCC(COC(=O)C(CCCCCC)CCCCCCCC)N1CCC2(CCN(CCCNC(=O)C3(C)CC3)CC2)CC1 (centres unmarked) [Example 9, 2-(9-(3-(1-methylcyclopropane-1-carboxamido)propyl)-3,9-diazaspiro[5.5]undecan-3-yl)propane-1,3-diyl bis(2-hexyldecanoate)] | 96 nm | 0.070 | 99% | 2.6 ng/well | 4.2 ng/well |
| CCCCCCCC(CCCCCCC)C(=O)OCC(COC(=O)C(CCCCCCC)CCCCCCC)N1CCC2(CCN(CCCO)CC2)CC1 [Example 10, 2-(9-(3-hydroxypropyl)-3,9-diazaspiro[5.5]undecan-3-yl)propane-1,3-diyl bis(2-heptylnonanoate)] | 109 nm | 0.054 | 99% | 1.3 ng/well | 1.5 ng/well |
| CCCCCCCCC(CCCCCC)C(=O)OCC(COC(=O)C(CCCCCC)CCCCCCCC)N1CCC2(CCN(CCCNS(=O)(=O)CC)CC2)CC1 (centres unmarked) [Example 11, 2-(9-(3-(ethylsulfonamido)propyl)-3,9-diazaspiro[5.5]undecan-3-yl)propane-1,3-diyl bis(2-hexyldecanoate)] | 121 nm | 0.080 | 99% | 3.7 ng/well | 13.8 ng/well |
| CCCCCCCC(CCCCCCC)C(=O)OCC(COC(=O)C(CCCCCCC)CCCCCCC)N1CCC2(CCN(CCCCO)C2)C1 (centres unmarked) [Example 12, 2-(7-(4-hydroxybutyl)-2,7-diazaspiro[4.4]nonan-2-yl)propane-1,3-diyl bis(2-heptylnonanoate)] | 105 nm | 0.042 | 100% | 0.22 ng/well | 0.44 ng/well |
| CCCCCCCC(CCCCCCC)C(=O)OCC(COC(=O)C(CCCCCCC)CCCCCCC)N1CC2(CCN(CCCCO)CC2)C1 [Example 13, 2-(7-(4-hydroxybutyl)-2,7-diazaspiro[3.5]nonan-2-yl)propane-1,3-diyl bis(2-heptylnonanoate)] | 131 nm | 0.086 | 99% | 0.36 ng/well | 1.6 ng/well |
| CCCCCCCC(CCCCCCC)C(=O)OCC(COC(=O)C(CCCCCCC)CCCCCCC)N1CCC2(CCN(CCCCO)CC2)C1 [Example 14, 2-(8-(4-hydroxybutyl)-2,8-diazaspiro[4.5]decan-2-yl)propane-1,3-diyl bis(2-heptylnonanoate)] | 114 nm | 0.036 | 100% | 1.5 ng/well | 2.5 ng/well |
| CCCCCCCCC(CCCCCC)C(=O)OCCC(CCOC(=O)C(CCCCCC)CCCCCCCC)N1CCC2(CCN(CCCCO)CC2)CC1 (centres unmarked) [Example 15, 3-(9-(4-hydroxybutyl)-3,9-diazaspiro[5.5]undecan-3-yl)pentane-1,5-diyl bis(2-hexyldecanoate)] | 110 nm | 0.120 | 100% | 4.0 ng/well | 2.7 ng/well |
| CCCCCCCCC(CCCCCC)C(=O)OCC(COC(=O)C(CCCCCC)CCCCCCCC)N1CCC2(CCN(CCCCCO)C2)C1 (centres unmarked) [Example 16, 2-(7-(5-hydroxypentyl)-2,7-diazaspiro[4.4]nonan-2-yl)propane-1,3-diyl bis(2-hexyldecanoate)] | 134 nm | 0.090 | 99% | 0.11 ng/well | 0.18 ng/well |
| CCCCCCCCC(CCCCCC)C(=O)OCC(COC(=O)C(CCCCCC)CCCCCCCC)N1CCC2(CCN(CCCCCO)C2)CC1 (centres unmarked) [Example 17, 2-(2-(5-hydroxypentyl)-2,8-diazaspiro[4.5]decan-8-yl)propane-1,3-diyl bis(2-hexyldecanoate)] | 149 nm | 0.053 | 100% | 0.64 ng/well | 1.3 ng/well |
| CCCCCCCC(CCCCCCC)C(=O)OCC(COC(=O)C(CCCCCCC)CCCCCCC)N1CC2(CCN(CCCCCO)CC2)C1 [Example 18, 2-(7-(5-hydroxypentyl)-2,7-diazaspiro[3.5]nonan-2-yl)propane-1,3-diyl bis(2-heptylnonanoate)] | 149 nm | 0.060 | 99% | 0.57 ng/well | 1.4 ng/well |
| CCCCCCCCC(CCCCCC)C(=O)OCCCC(COC(=O)C(CCCCCC)CCCCCCCC)N1CCC2(CCN(CCCCO)CC2)CC1 (centres unmarked) [Example 19, 2-(9-(4-hydroxybutyl)-3,9-diazaspiro[5.5]undecan-3-yl)pentane-1,5-diyl bis(2-hexyldecanoate)] | 153 nm | 0.140 | 99% | 1.4 ng/well | 0.89 ng/well |
| CCCCCCCC(CCCCCCC)C(=O)OCC(COC(=O)C(CCCCCCC)CCCCCCC)N1CCC2(CC1)CN(CCCCO)C2 [Example 20, 2-(2-(4-hydroxybutyl)-2,7-diazaspiro[3.5]nonan-7-yl)propane-1,3-diyl bis(2-heptylnonanoate)] | 105 nm | 0.073 | 98% | 0.22 ng/well | 0.28 ng/well |
